Values quoted from earlier work as cited in patent US20090202630A1, “ORALLY DISINTEGRATING TABLET COMPOSITIONS OF RANITIDINE AND METHODS OF MANUFACTURE” (priority 2008, published 2009).
Counter-ions that a name gives are not always drawn.

## CNC(=C[N+](=O)[O-])NCCSCc1ccc(CN(C)C)o1 [Ranitidine hydrochloride]
  solubility in water (in words): freely soluble
